Results as given in patent US20260356803A1, “Nicotinamide derivatives” (Board of Regents, The University of Texas System, priority 2024, published 2026).
Read-outs that look alike come from different tables or passages of the source.

Key:
[1] = tested on: human MPNST cell line S462; experiment: S462 cell viability (CellTiter-Glo, 72 h); format: cell-based; details: for toxicity to S462 / rescue by nicotinamide: 10% FBS Nam-free DMEM; for rescue by nicotinamide: comparison of vacor, 3-AP, tiazofurin and 9
From the text: This similarity, in addition to the scaffold's particular sensitivity to modifications around the pyridinyl ring led us to hypothesize that the activity of compounds 1 and 9 may depend on the concentration of Nam in the media. To test this hypothesis, we analyzed the activity of both compounds in media supplemented with increasing concentrations of Nam. […] Given that Nam inhibited compound activity, we considered Nam concentrations in basal culture conditions (DMEM supplemented with 10% fetal bovine serum or FBS) as compared to physiological levels. Nam levels in human serum are estimated to be in the 4 μM range.^5 In contrast, DMEM alone contains […] of Nam and the concentration in 10% FBS is expected to range between 0.574-1.56 μM.^6 To more closely reflect physiologic levels of Nam, we evaluated the activity of these compounds in cells grown in DMEM lacking Nam (Nam-free DMEM), so that the only exogenous Nam derives from 10% FBS. […] These observations indicate that the potency of these compounds is in the nanomolar range when tested in the presence of physiological levels of Nam.
We thus re-assessed the structure activity relationship of compound 21 analogs in Nam-free DMEM supplemented with or without 100 μM Nam (see appendix below: Synthesis, characterization and activity of micromolar and nanomolar active nicotinamide derivatives). […] Particularly notable, even in Nam-depleted conditions, all active analogs retained the same 3-pyridinyl ring as Nam, reinforcing the relationship between structural resemblance to Nam and compound efficacy.
In 96-well assay plates (Corning #2903), 2,000 cells were plated per well in 100 μL of medium and allowed to adhere overnight. The next day, compounds or Nam suspended in DMSO were dispensed to the assayed wells using a D300e Digital Dispenser (Tecan). All wells were normalized to 0.5% DMSO. 72 hours after incubation at 37 °C in 5% CO2, cell viability was assayed using an ATP-based luminescent viability assay, CellTiter-Glo (Promega #G8462). CellTiter-Glo substrate was mixed 1:1 with phosphate-buffered saline (PBS) supplemented with 1% Triton X-100, and 40 μL of this mixture was added to the assay wells. After the plates were shaken on a microplate shaker for 10 minutes at room temperature, luminescence was recorded using a Synergy 2 Microplate Reader or Cytation 5 plate reader (BioTek). In Prism 9 software (GraphPad), ten-point dose response curves were plotted with baseline-correction to the vehicle control well, and IC50 values were calculated by curve fitting using asymmetric (five parameter), least squares fit.

SARM1 = experiment: Cytotoxicity in SARM1-knockout versus wild type cells; format: cell-based; details: SARM1-knockout vs wild type
From the text: (§1) Given that vacor, 3-AP, and compound 21 are all metabolized to toxic, NAD-like derivatives through NAMPT and NMNAT, we hypothesized that their anti-cancer activity may also depend on SARM1. To test this, we compared the toxic effects of vacor, 3-AP, and 9 in either wild type cells or cells in which we used CRISPR to silence SARM1. […] These observations highlight that even though these different scaffolds are toxified through the same mechanism, the resulting metabolites may have different activities. We next co-titrated guanosine, which is known to rescue tiazofurin by bypassing IMPDH in guanylate synthesis, with each of the above small molecules. […] To test this hypothesis, we set up in vitro reactions with different combinations of 9, NAMPT and NMNAT. After incubation, metabolites were extracted, reconstituted in aqueous solution and then co-incubated with an established IMPDH2 enzyme assay.

IMPDH = experiment: Guanosine co-titration rescue; format: cell-based; details: guanosine co-titrated
From the text: as §1

[2] = tested on: NMNAT1 or alcohol dehydrogenase; experiment: Counter screen with NMN in place of NAM; format: biochemical; details: role: inhibitor; 50 μM NMN substituted for NAM
Protocol: NAMPT activity was measured using a coupled-enzyme assay previously described [Revollo, 2014]. Briefly, reactions consisting of 50 mM Tris pH 8, 0.4 mM PRPP, 2.5 mM ATP, 12 mM MgCl2, 0.02% BSA, 1 μM NAMPT, 77 nM NMNAT1, 10 mM semicarbazide, 30 μg/ml alcohol dehydrogenase were set up in a 384-well plate (50 μl/well). […] The reactions were started by addition of 50 μM NAM. Fluorescence due to NADH formation by alcohol dehydrogenase was measured in a BioTek Cytation 5 plate reader (Agilent, USA) set up for excitation at λ=340 nm and detection of emission at λ=460 nm. To counter screen for NMNAT1 or alcohol dehydrogenase inhibition, the assay was set up above but substituting 50 μM NMN (substrate for NMNAT1) for NAM. No inhibition of was observed under these conditions.

iHCT116 cells = experiment: Forward genetics resistance selection (IAA-inducible mutagenesis); format: cell-based
From the text: Second, we screened for resistance to 9 in iHCT116 cells, a system that uses inducible mutagenesis and forward genetics to find compound-resistant mutations and thus can reveal both loss of function and gain of function alleles that suppress activity. The iHCT116 system is a barcoded cell line in which we temporally control mutagenesis by the addition of indole acetic acid (IAA) mediated degradation of the mismatch repair protein MLH1.^12 MLN4924 is a small molecule toxin that we use as a positive control to verify that IAA treatment leads to increased mutations. By degrading MLH1 and increasing the overall mutation rate, IAA treatment increases the frequency of UBA3 mutations, leading to a higher rate of MLN4924 resistance. […] Having previously established a relationship between either NMNAT1 levels or NAMPT activity and compound resistance, we analyzed the levels of both enzymes in multiple resistant clones that harbored unique barcode sequences. […] To test whether reduced NMNAT1 levels in these clones contributed to resistance, we ectopically expressed NMNAT1 in either the parental cells or a representative resistant clone with low NMNAT1 expression.

[3] = [nicotinamide] 0 μM, Nam-free DMEM, read-out: IC50 (μM), [nicotinamide] 0 μM
[4] = [nicotinamide] 33 μM, read-out: IC50 (μM), [nicotinamide] 33 μM
[5] = [nicotinamide] 100 μM, read-out: IC50 (μM), [nicotinamide] 100 μM
[6] = S462, commercial DMEM, highest dose tested 50 μM, read-out: IC50

Compound	IC50 [1, 3]	IC50 [1, 4]	IC50 [1, 5]	also measured
Cc1ccccc1C(=O)Nc1cccnc1	14.7 µM	> 50 µM	> 50 µM	
O=C(Nc1ccc(Br)nc1)c1cccs1	8.5 µM	> 50 µM	> 50 µM	
O=C(Nc1cccnc1)c1ccccn1	0.992 µM	> 50 µM	> 50 µM	
O=C(Nc1cccs1)c1cccnc1 [drawing 72]	0.006 µM	1.2 µM	> 50 µM	
N#Cc1c(NC(=O)c2cccnc2)sc2c1CCC2	5.97 µM		6.1 µM	
O=C(Nc1ccccc1)c1cccnc1	0.024 µM	13.1 µM	> 50 µM	
Cc1cccc(C(=O)Nc2cccnc2)c1	35.7 µM	> 50 µM	> 50 µM	
Cc1ncsc1C(=O)Nc1cccnc1		> 50 µM	> 50 µM	
Cc1ccc(C(=O)Nc2cccnc2)s1	0.184 µM	> 50 µM	> 50 µM	
O=C(Nc1cccnc1)c1ncco1	19.5 µM	> 50 µM	> 50 µM	
O=C(Nc1ccccn1)c1cccs1 [Compound 3, N-(Pyridin-2-yl)thiophene-2-carboxamide]				IC50 [1, 6]: > 50 µM
Cc1ccsc1C(=O)Nc1cccnc1	1.08 µM	> 50 µM	> 50 µM	
Cc1sc(NC(=O)c2cccnc2)c(C#N)c1C			> 50 µM	
O=C(Nc1cccnc1)c1ccc[nH]1	0.08 µM	> 50 µM	> 50 µM	
O=C(Nc1ccccc1)c1cccs1 [Compound 2, N-Phenylthiophene-2-carboxamide]				IC50 [1, 6]: > 50 µM
O=C(NCc1cccnc1)Nc1ccc([N+](=O)[O-])cc1 [vacor, reference compound]				toxicity to S462 [1]: toxic to S462; rescue by nicotinamide [1]: rescued by nicotinamide; resistance of SARM1-knockout cells (SARM1): 3 fold; guanosine rescue of toxicity (IMPDH): no rescue
CC(=O)c1cccnc1 [Compound 3-AP, 3-acetylpyridine, reference compound]				toxicity to S462 [1]: toxic to S462; rescue by nicotinamide [1]: rescued by nicotinamide; sensitivity of SARM1-knockout cells (SARM1): equally sensitive; guanosine rescue of toxicity (IMPDH): no rescue
CCOC(=O)c1ccsc1NC(=O)c1cccnc1		> 50 µM	> 50 µM	
O=C(Nc1cccnc1)c1cc2c(s1)CCCC2	0.763 µM	> 50 µM	> 50 µM	
O=C(Nc1cccnc1)c1ncc[nH]1	22.4 µM	> 50 µM	> 50 µM	
O=C(Nc1cccnc1)c1cccnn1	18 µM	> 50 µM	> 50 µM	
O=C(Nc1cccnc1)c1ccccc1	0.064 µM	16.8 µM	> 50 µM	
O=C(Nc1cccnc1)c1ccoc1	0.948 µM	> 50 µM	> 50 µM	
N#Cc1c(NC(=O)c2cccnc2)sc2c1CCCC2	4.74 µM		4.72 µM	
Cc1cc(C#N)c(NC(=O)c2cccnc2)s1			> 50 µM	

Compound	IC50 [1, 3]	IC50 [1, 4]	IC50 [1, 5]	also measured
Cc1csc(C(=O)Nc2cccnc2)c1	0.302 µM	> 50 µM	> 50 µM	
O=C(Nc1cc(-c2ccccc2)cs1)c1cccnc1	2.46 µM		39.6 µM	
N#Cc1cncc(NC(=O)c2cccs2)c1		> 50 µM	> 50 µM	
O=C(Nc1cncc(F)c1)c1cccs1		> 50 µM	> 50 µM	
O=C(Nc1ccon1)c1cccnc1	2.73 µM	> 50 µM	> 50 µM	
O=C(Nc1cccnc1)c1ccc(Br)s1	0.234 µM	15.6 µM	> 50 µM	
O=C(Nc1cccnc1)c1ccco1	0.022 µM	> 50 µM	> 50 µM	
O=C(Nc1cccnc1)c1cc2ccccc2s1	0.249 µM	21.4 µM	> 50 µM	
O=C(Nc1cccnc1)c1nccs1	1.88 µM	> 50 µM	> 50 µM	
COc1cccc(C(=O)Nc2cccnc2)c1	2.36 µM	> 50 µM	> 50 µM	
O=C(Nc1cccnc1)c1ccc(C(F)(F)F)cc1	0.771 µM	> 50 µM	> 50 µM	
CCOC(=O)c1ccc(NC(=O)c2cccnc2)s1	0.23 µM		> 50 µM	
O=C(Nc1nc2ccccc2s1)c1cccnc1 [drawing 105]	0.623 µM		> 50 µM	
COc1ccc(C(=O)Nc2cccnc2)cc1	0.686 µM	> 50 µM	> 50 µM	
O=C(/C=C/c1cccnc1)NCCCCC1CCN(C(=O)c2ccccc2)CC1 [FK866, reference compound]				inhibition in counter screen [2]: No inhibition
NS(=O)(=O)OC[C@@H]1C[C@@H](n2ccc3c(N[C@H]4CCc5ccccc54)ncnc32)C[C@@H]1O [MLN4924, reference compound]				resistant clones (iHCT116 cells; IAA treated (Mut-on)): 33 clones; resistant clones (iHCT116 cells; vehicle (Mut-off)): one
O=C(Nc1cnc(Cl)c(Cl)c1)c1cccs1	8.76 µM	> 50 µM	42.4 µM	
O=C(Nc1ccncc1)c1cccs1 [Compound 4, N-(Pyridin-4-yl)thiophene-2-carboxamide]				IC50 [1, 6]: > 50 µM
N#Cc1ccc(NC(=O)c2cccs2)cn1	2.78 µM	> 50 µM	> 50 µM	
O=C(Nc1nc2ccccc2s1)c1cccnc1 [drawing 111]	36.2 µM	> 50 µM	> 50 µM	
O=C(Nc1cccnc1)c1ccc(Cl)cc1	0.921 µM	> 50 µM	> 50 µM	
O=C(Nc1nc2cccnc2s1)c1cccnc1	23.9 µM	> 50 µM	> 50 µM	
N#Cc1ccc(C(=O)Nc2cccnc2)s1	0.075 µM	14.2 µM	> 50 µM	
NC(=O)c1csc([C@@H]2O[C@H](CO)[C@@H](O)[C@H]2O)n1 [tiazofurin, reference compound]				toxicity to S462 [1]: toxic to S462; rescue by nicotinamide [1]: all compounds except tiazofurin were rescued by nicotinamide; guanosine rescue of toxicity (IMPDH): guanosine rescue
